Among the data in patent US10195185B2, “3-(1H-imidazo[4,5-C]pyridin-2-yl)-1H-pyrazolo[4,3-B]pyridines and therapeutic uses thereof” (Samumed, LLC, priority 2015, dated 2019) are Emax, EC50 and inhibition values, retold here.

Assay type in all cases: cell-based
Test [1] deals with primary human mesenchymal stem cells (hMSCs). The experiment in a line: Induction of chondrogenesis in hMSCs (nodule area, Rhodamine B / Nile Red). Particulars: TGF-β3 as positive control; for Emax: read-out: Max. Activity as % TGF-β3 activity; for EC50: concentration required to induce 50% levels of chondrogenesis, read-out: Conc (nM) of 50% TGF-β3 activity. How it is done:
Representative compounds were screened using primary human mesenchymal stem cells (hMSCs) to determine their ability to induce chondrogenesis (process by which cartilage is developed).
Primary human mesenchymal stem cells (hMSCs) were purchased from Lonza (Walkersville, Md.) and expanded in Mesenchymal Stem Cell Growth Media (Lonza). Cells between passage 3 and 6 were used for the experiments.
Each compound was dissolved in DMSO as a 10 mM stock and used to prepare compound source plates. For the 96 well assay, serial dilution (1:3, 6-point dose-response curves from 2700 nM to 10 nM) and compound transfer was performed using the ECHO 550 (Labcyte, Sunnyvale, Calif.) into 96-well clear bottom assay plates (Greiner Bio-One) with appropriate DMSO backfill for a final DMSO concentration of 0.03%. hMSCs were plated at 20,000 cells/well in 250 μL/well Incomplete Chondrogenic Induction Medium (Lonza; DMEM, dexamethasone, ascorbate, insulin-transferrin-selenium [ITS supplement], gentamycin-amphotericin [GA-1000], sodium pyruvate, proline and L-glutamine). TGF-β3 (10 ng/mL) was used as a positive control for differentiation while negative control wells were treated with 75 nL DMSO for normalization and calculating EC50 values. For the 384 well assay, serial dilution (1:3, 8-point dose-response curves from 5000 nM to 2.2 nM) and compound transfer was performed using the ECHO 550 (Labcyte, Sunnyvale, Calif.) into 384-well clear bottom assay plates (Greiner Bio-One) with appropriate DMSO backfill for a final DMSO concentration of 0.03%. hMSCs were plated at 8,000 cells/well in 80 μL/well Incomplete Chondrogenic Induction Medium (Lonza; DMEM, dexamethasone, ascorbate, insulin-transferrin-selenium [ITS supplement], gentamycin-amphotericin [GA-1000], sodium pyruvate, proline and L-glutamine). TGF-β3 (10 ng/mL) was used as a positive control for differentiation while negative control wells were treated with 25 nL DMSO for normalization and calculating EC50 values. Cells were incubated at 37° C. and 5% CO2 for 6 days. To image chondrogenic nodules, the cells were fixed using 4% formaldehyde (Electron Microscopy Sciences), and stained with 2 μg/mL Rhodamine B (Sigma-Aldrich) and 20 μM Nile Red (Sigma-Aldrich) [Johnson K., et. al, A Stem Cell-Based Approach to Cartilage Repair, Science, (2012), 336(6082), 717-721]. The nodules imaged (25 images per well for 96 well plates and 9 images per well for 384 well plates at 10× magnification) by excitation at 531 nm and emission at 625 nm and quantified using the CellInsight CX5 (Thermo Scientific). Area of nodules in each well was normalized to the average of 3 DMSO treated wells on the same plate using Excel (Microsoft Inc.). The normalized averages (fold change over DMSO) of 2 or 3 replicate wells for each compound concentration were calculated. Due to solubility limitations of some of the compounds, curve fitting was incomplete leading to inaccurate EC50 determinations.
Using TGF-β3 as a positive control, the concentration of representative compounds required to induce 50% levels of chondrogenesis is reported. In addition, the maximum activity of each compound and the respective dose that each compound reached maximum chondrogenesis activity is reported.

The test system of the next test is SW480 colon cancer cells. The experiment in a line: Cell viability assay (CellTiter-Blue), four days. The settings on record: Homo sapiens, 96 h; for inhibition at 10 µM: read-out: percent inhibition at 10 μM (given for EC50 of >10 μM); for EC50: CellTiter-Blue cell viability. In outline:
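Approximately 2×10^3 SW480 cells per well are seeded with compound (8 points, threefold steps, top 10 μM) and incubated four days at 37 °C. CellTiter-Blue is then added for about 3 h and fluorescence read. Non-linear regression gives EC50; for values beyond 10 μM, percent inhibition at that concentration is listed.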

Test [2] relates to Wnt activity (Wnt-responsive human Sp5 promoter, TCF/LEF binding sites) in SW480 colon carcinoma cells. Briefly: Wnt activity screening assay: Sp5-Luc luciferase reporter gene in SW480 cells. The settings on record: for EC50: 10-point dose-response from 10 μM, incubated overnight; for inhibition at 10 µM: given for EC50 of >10 μM, read-out: percent inhibition at 10 μM. In outline: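 First, hygromycin-selected SW480 Sp5-Luc reporter cells are seeded in medium with 1% fetal bovine serum and exposed overnight to compound (up to 10 μM, 0.1% DMSO). Next, luciferase signal is read by luminescence. Finally, EC50 is fitted, or percent inhibition at 10 μM is reported above 10 μM.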

For the compound `CCC(=O)Nc1cncc(-c2ccc3[nH]nc(-c4nc5c(-c6cccc(F)c6)nccc5[nH]4)c3n2)c1` [Compound 1, N-(5-(3-(4-(3-Fluorophenyl)-1H-imidazo[4,5-c]pyridin-2-yl)-1H-pyrazolo [4,3-b]pyridin-5-yl)pyridin-3-yl)propionamide], in test [1], the Emax is 95% and the EC50 was found to be 5000 nM. In addition, in the test on SW480 colon cancer cells, the inhibition – broadly, the change of the read-out against control, counted positive when it falls – at 10 µM was 28% and the EC50 was above 10 µM. Moreover, in test [2], the EC50 was above 10 µM and the inhibition at 10 µM was found to be 29.8%.
For the compound `Fc1cccc(-c2nccc3[nH]c(-c4n[nH]c5ccc(-c6cncc(CN7CCC(F)(F)C7)c6)nc45)nc23)c1` [Compound 26, 5-(5-((3,3-Difluoropyrrolidin-1-yl)methyl)pyridin-3-yl)-3-(4-(3-fluorophenyl)-1H-imidazo[4,5-c]pyridin-2-yl)-1H-pyrazolo[4,3-b]pyridine], the Emax in test [1] came to 58%. In addition, the EC50 was determined as 30 nM in test [1], 1.24 µM in the test on SW480 colon cancer cells and 0.547 µM in test [2].
For `CC(C)(C)C(=O)Nc1cncc(-c2ccc3[nH]nc(-c4nc5c(-c6ccc(F)cc6)nccc5[nH]4)c3n2)c1` [Compound 36, N-(5-(3-(4-(4-Fluorophenyl)-1H-imidazo[4,5-c]pyridin-2-yl)-1H-pyrazolo [4,3-b]pyridin-5-yl)pyridin-3-yl)pivalamide], in that order: 56%, 10 nM, 3.59 µM and 3.35 µM.
With `Fc1ccc(-c2nccc3[nH]c(-c4n[nH]c5ccc(-c6cncc(CN7CCCC7)c6)nc45)nc23)cc1` [Compound 42, 3-(4-(4-Fluorophenyl)-1H-imidazo[4,5-c]pyridin-2-yl)-5-(5-(pyrrolidin-1-ylmethyl)pyridin-3-yl)-1H-pyrazolo[4,3-b]pyridine], the Emax in test [1] was 39%. For the same compound, in the test with SW480 colon cancer cells, the EC50 turned out to be 9.56 µM. Also, in test [2], the EC50 is above 10 µM and the inhibition at 10 µM amounted to 28.2%.
Turning to `O=C(Nc1cncc(-c2ccc3[nH]nc(-c4nc5c(-c6ccc(F)cc6)nccc5[nH]4)c3n2)c1)C1CCC1` [Compound 49, N-(5-(3-(4-(4-Fluorophenyl)-1H-imidazo[4,5-c]pyridin-2-yl)-1H-pyrazolo [4,3-b]pyridin-5-yl)pyridin-3-yl)cyclobutanecarboxamide], the Emax in test [1] was 45%. The results for the EC50 (with SW480 colon cancer cells; in test [2]) were 9.29 µM and 4.08 µM, respectively.
With `Fc1ccc(-c2nccc3[nH]c(-c4n[nH]c5ccc(-c6cncnc6)nc45)nc23)cc1` [Compound 55, 3-(4-(4-Fluorophenyl)-1H-imidazo[4,5-c]pyridin-2-yl)-5-(pyrimidin-5-yl)-1H-pyrazolo[4,3-b]pyridine], in test [1], the Emax was determined as 139% and the EC50 was 900 nM. For the same compound, in the test with SW480 colon cancer cells, the inhibition at 10 µM was determined as 15.1% and the EC50 is above 10 µM. Also, the EC50 in test [2] stood at 1.22 µM.
In the case of `Nc1cncc(-c2ccc3[nH]nc(-c4nc5c(-c6ccccc6F)nccc5[nH]4)c3n2)c1` [Compound 59, 5-(3-(4-(2-Fluorophenyl)-1H-imidazo[4,5-c]pyridin-2-yl)-1H-pyrazolo[4,3-b]pyridin-5-yl)pyridin-3-amine], in test [1], the Emax came to 108% and the EC50 stood at 10 nM. Moreover, in the test with SW480 colon cancer cells, the inhibition at 10 µM stood at 0% and the EC50 is above 10 µM. In test [2], the EC50 is above 10 µM and the inhibition at 10 µM is 27.7%.
Consider `CC(C)C(=O)Nc1cncc(-c2ccc3[nH]nc(-c4nc5c(-c6ccccc6F)nccc5[nH]4)c3n2)c1` [Compound 65, N-(5-(3-(4-(2-fluorophenyl)-1H-imidazo[4,5-c]pyridin-2-yl)-1H-pyrazolo [4,3-b]pyridin-5-yl)pyridin-3-yl)isobutyramide], for which, in test [1], the Emax stood at 140% and the EC50 was 10 nM. In the test with SW480 colon cancer cells, the inhibition at 10 µM was found to be 8.7% and the EC50 was above 10 µM. Also, in test [2], the EC50 is above 10 µM and the inhibition at 10 µM amounted to 2.7%.
With `c1cncc(-c2ccc3[nH]nc(-c4nc5c(-c6cccnc6)nccc5[nH]4)c3n2)c1` [Compound 88, 5-(Pyridin-3-yl)-3-(4-(pyridin-3-yl)-1H-imidazo[4,5-c]pyridin-2-yl)-1H-pyrazolo[4,3-b]pyridine], in test [1], the Emax worked out at 70% and the EC50 stood at 100 nM. In addition, in the test on SW480 colon cancer cells, the inhibition at 10 µM turned out to be 8.5% and the EC50 was above 10 µM. In test [2], the EC50 is above 10 µM and the inhibition at 10 µM amounted to 34.4%.
Take `CC(C)C(=O)Nc1cncc(-c2ccc3[nH]nc(-c4nc5c(-c6cccnc6)nccc5[nH]4)c3n2)c1` [Compound 93, N-(5-(3-(4-(Pyridin-3-yl)-1H-imidazo[4,5-c]pyridin-2-yl)-1H-pyrazolo[4,3-b]pyridin-5-yl)pyridin-3-yl)isobutyramide]: the Emax in test [1] amounted to 32%. In addition, in the test with SW480 colon cancer cells, the inhibition at 10 µM came to 5.9% and the EC50 was above 10 µM. Besides, in test [2], the EC50 was above 10 µM and the inhibition at 10 µM was 25.1%.
Turning to `CC(C)Nc1cncc(-c2ccc3[nH]nc(-c4nc5c(-c6cccnc6)nccc5[nH]4)c3n2)c1` [Compound 96, N-Isopropyl-5-(3-(4-(pyridin-3-yl)-1H-imidazo[4,5-c]pyridin-2-yl)-1H-pyrazolo[4,3-b]pyridin-5-yl)pyridin-3-amine], the Emax in test [1] came to 54%. For the same compound, the EC50 amounted to 10 nM in test [1], 1.98 µM with SW480 colon cancer cells and 0.994 µM in test [2].
With `Cc1ccncc1-c1ccc2[nH]nc(-c3nc4c(-c5ccncc5)nccc4[nH]3)c2n1` [Compound 117, 5-(4-Methylpyridin-3-yl)-3-(4-(pyridin-4-yl)-1H-imidazo[4,5-c]pyridin-2-yl)-1H-pyrazolo[4,3-b]pyridine], in test [1], the Emax was determined as 53% and the EC50 is 2700 nM. Also, in the test on SW480 colon cancer cells, the inhibition at 10 µM is 19.6% and the EC50 is above 10 µM. In test [2], the EC50 is above 10 µM and the inhibition at 10 µM came out at 28%.
Regarding `O=C(Cc1ccccc1)Nc1cncc(-c2ccc3[nH]nc(-c4nc5c(-c6ccncc6)nccc5[nH]4)c3n2)c1` [Compound 122, 2-phenyl-N-(5-(3-(4-(pyridin-4-yl)-1H-imidazo[4,5-c]pyridin-2-yl)-1H-pyrazolo[4,3-b]pyridin-5-yl)pyridin-3-yl)acetamide], in test [1], the Emax worked out at 74% and the EC50 was determined as 30 nM. Also, in the test on SW480 colon cancer cells, the inhibition at 10 µM was 3.2% and the EC50 was above 10 µM. Further, in test [2], the EC50 is above 10 µM and the inhibition at 10 µM came to 1%.
As to `CCCC(=O)Nc1cncc(-c2ccc3[nH]nc(-c4nc5c(-c6ccncc6)nccc5[nH]4)c3n2)c1` [Compound 129, N-(5-(3-(4-(Pyridin-4-yl)-1H-imidazo[4,5-c]pyridin-2-yl)-1H-pyrazolo[4,3-b]pyridin-5-yl)pyridin-3-yl)butyramide], the Emax in test [1] worked out at 70%. In addition, the EC50 was 300 nM in test [1], above 10 µM with SW480 colon cancer cells and above 10 µM in test [2]. Besides, the results for the inhibition at 10 µM (in the test on SW480 colon cancer cells; in test [2]) were 0% and 2.2%, respectively.
